Source: ChEMBL document CHEMBL1828590 (J Med Chem, 2011)
Activity calls are given as the source filed them. No cut-off for these calls is given here.

Experiments:
[1] = system: HCT-116; test: Antitumor activity against human HCT116 cells xenografted in nude BALB/c mouse assessed as tumor growth inhibition at 100 mg/kg, po qd for 21 days measured on day 18; assay type: functional; conditions: read-out: TGI
[2] = Time required for attaining concentration above IC50 of HDAC1 in tumor of nude BALB/c mouse xenografted with HCT116 cells at 50 mg/kg, po administered as single dose; assay type: ADME, organism-based, Neoplasm, HCT-116; parameters: dose 50 mg/kg, route oral; conditions: in vivo
[3] = Time required for attaining concentration above IC50 of HDAC1 in tumor of nude BALB/c mouse xenografted with HCT116 cells at 100 mg/kg, po administered as single dose; assay type: ADME, organism-based, Neoplasm, HCT-116; parameters: dose 100 mg/kg, route oral; conditions: in vivo
[4] = Time required for attaining concentration above IC50 of HCT116 in tumor of nude BALB/c mouse xenografted with HCT116 cells at 50 mg/kg, po administered as single dose; assay type: ADME, organism-based, Neoplasm, HCT-116; parameters: dose 50 mg/kg, route oral; conditions: in vivo
[5] = Time required for attaining concentration above IC50 of HCT116 in tumor of nude BALB/c mouse xenografted with HCT116 cells at 100 mg/kg, po administered as single dose; assay type: ADME, organism-based, Neoplasm, HCT-116; parameters: dose 100 mg/kg, route oral; conditions: in vivo
[6] = Plasma protein binding in human at 1000 ng/mL; assay type: ADME, cell-free; conditions: read-out: PPB (converted)
[7] = Plasma protein binding in dog at 1000 ng/mL; assay type: ADME, cell-free, Canis lupus familiaris; conditions: read-out: PPB (converted)
[8] = Plasma protein binding in rat at 1000 ng/mL; assay type: ADME, cell-free; conditions: read-out: PPB (converted)
[9] = Plasma protein binding in mouse at 1000 ng/mL; assay type: ADME, cell-free; conditions: read-out: PPB (converted)
[10] = target: Matrix metalloproteinase-9 (Homo sapiens) (UniProt P14780); test: Inhibition of MMP9 at 10 uM
Chain of Matrix metalloproteinase-9 (Homo sapiens) (P14780 whole entry): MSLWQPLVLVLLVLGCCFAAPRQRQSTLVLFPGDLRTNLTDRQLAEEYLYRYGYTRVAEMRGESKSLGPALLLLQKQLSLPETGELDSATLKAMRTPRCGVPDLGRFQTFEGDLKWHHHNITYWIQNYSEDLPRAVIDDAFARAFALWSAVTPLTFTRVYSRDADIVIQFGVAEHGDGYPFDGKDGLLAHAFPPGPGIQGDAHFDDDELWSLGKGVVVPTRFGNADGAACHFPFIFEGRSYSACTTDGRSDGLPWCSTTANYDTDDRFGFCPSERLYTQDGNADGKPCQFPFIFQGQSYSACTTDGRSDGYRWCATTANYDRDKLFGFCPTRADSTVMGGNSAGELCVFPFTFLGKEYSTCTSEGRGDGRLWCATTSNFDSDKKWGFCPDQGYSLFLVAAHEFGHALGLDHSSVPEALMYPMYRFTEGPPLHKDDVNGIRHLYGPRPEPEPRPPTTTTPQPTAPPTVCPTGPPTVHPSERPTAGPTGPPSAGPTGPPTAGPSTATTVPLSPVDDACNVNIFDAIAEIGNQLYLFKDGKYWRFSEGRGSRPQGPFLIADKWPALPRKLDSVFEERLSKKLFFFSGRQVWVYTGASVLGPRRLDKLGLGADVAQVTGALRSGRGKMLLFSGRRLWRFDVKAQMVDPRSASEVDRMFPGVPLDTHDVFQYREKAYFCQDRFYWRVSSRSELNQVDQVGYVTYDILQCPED

[11] = system: HCT-116; test: Antitumor activity against human HCT116 cells xenografted in nude BALB/c mouse assessed as tumor growth inhibition at 100 mg/kg, po qd for 21 days measured on day 15 measured on day 15; assay type: functional; conditions: read-out: TGI
[12] = Solubility of the compound in water at pH 2.2; assay type: physicochemical
[13] = Solubility of the compound in 0.9% NaCl; assay type: physicochemical
[14] = Solubility of the compound in 1% methylcellulose/0.1% Tween 80; assay type: physicochemical
[15] = Half life in rat liver microsomes; assay type: ADME, Microsome
[16] = Half life in dog liver microsomes; assay type: ADME, Canis lupus familiaris, Microsome
[17] = Kinetic solubility of the compound at pH 7 with […] DMSO; assay type: physicochemical; conditions: buffer, read-out: Kinetic_solubility
[18] = 1-Octanol-sodium phosphate buffer distribution coefficient, log D of the compound at pH 7.4; assay type: physicochemical; conditions: 1-octanol/sodium phosphate buffer, read-out: logD
[19] = Terminal half life in nude BALB/c mouse at 10 mg/kg, iv; assay type: ADME, organism-based; parameters: dose 10 mg/kg, route intravenous; conditions: in vivo, read-out: beta t1/2 (converted)
[20] = Apparent oral clearance in nude BALB/c mouse at 10 mg/kg, iv; assay type: ADME, organism-based; parameters: dose 10 mg/kg; conditions: in vivo
[21] = Volume of distribution at steady state in nude BALB/c mouse at 10 mg/kg, iv; assay type: ADME, organism-based; parameters: dose 10 mg/kg, route intravenous; conditions: in vivo, read-out: Vdss
[22] = Tmax in nude BALB/c mouse at 50 mg/kg, po; assay type: ADME, organism-based; parameters: dose 50 mg/kg, route oral; conditions: in vivo
[23] = Terminal half life in nude BALB/c mouse at 50 mg/kg, po; assay type: ADME, organism-based; parameters: dose 50 mg/kg, route oral; conditions: in vivo, read-out: beta t1/2 (converted)
[24] = AUC (0 to infinity) in nude BALB/c mouse at 50 mg/kg, po; assay type: ADME, organism-based; parameters: time infinity, dose 50 mg/kg, route oral; conditions: plasma
[25] = Terminal half life in Wistar rat at 2 mg/kg, iv; assay type: ADME, organism-based; parameters: dose 2 mg/kg, route intravenous; conditions: in vivo, read-out: beta t1/2 (converted)
[26] = Apparent oral clearance in Wistar rat at 2 mg/kg, iv; assay type: ADME, organism-based; parameters: dose 2 mg/kg; conditions: in vivo
[27] = Cmax in Wistar rat at 10 mg/kg, po; assay type: ADME, organism-based; parameters: dose 10 mg/kg, route oral; conditions: in vivo
[28] = Tmax in Wistar rat at 10 mg/kg, po; assay type: ADME, organism-based; parameters: dose 10 mg/kg, route oral; conditions: in vivo
[29] = Terminal half life in Wistar rat at 10 mg/kg, po; assay type: ADME, organism-based; parameters: dose 10 mg/kg, route oral; conditions: in vivo, read-out: beta t1/2 (converted)
[30] = Apparent oral clearance in Wistar rat at 10 mg/kg, po; assay type: ADME, organism-based; parameters: dose 10 mg/kg, route oral; conditions: in vivo
[31] = system: Mus musculus; test: Toxicity in nude BALB/c mouse xenografted with human HCT116 cells assessed as body weight loss at 50 mg/kg, po QD for 21 days measured on day 17; assay type: organism-based, HCT-116; parameters: dose 50 mg/kg, route oral; conditions: in vivo, 504 h
[32] = system: Mus musculus; test: Toxicity in nude BALB/c mouse xenografted with human HCT116 cells assessed as body weight loss at 200 mg/kg, po QD for 21 days measured on day 6; assay type: organism-based, HCT-116; parameters: dose 200 mg/kg, route oral; conditions: in vivo, 504 h
[33] = system: Mus musculus; test: Toxicity in nude BALB/c mouse xenografted with human HCT116 cells assessed as mouse survival at 50 mg/kg, po QD for 21 days measured on day 22; assay type: organism-based, HCT-116; parameters: dose 50 mg/kg, route oral; conditions: in vivo, 504 h
[34] = system: Mus musculus; test: Toxicity in nude BALB/c mouse xenografted with human HCT116 cells assessed as mouse survival at 100 mg/kg, po QD for 21 days measured on day 22; assay type: organism-based, HCT-116; parameters: dose 100 mg/kg, route oral; conditions: in vivo, 504 h
[35] = Terminal half life in Beagle dog at 2 mg/kg, iv; assay type: ADME, organism-based, Canis lupus familiaris; parameters: dose 2 mg/kg, route intravenous; conditions: in vivo, read-out: beta t1/2 (converted)
[36] = AUC (0 to infinity) in Beagle dog at 2 mg/kg, iv; assay type: ADME, organism-based, Canis lupus familiaris; parameters: time infinity, dose 2 mg/kg, route intravenous; conditions: plasma
[37] = Cmax in Beagle dog at 10 mg/kg, po; assay type: ADME, organism-based, Canis lupus familiaris; parameters: dose 10 mg/kg, route oral; conditions: in vivo
[38] = Tmax in Beagle dog at 10 mg/kg, po; assay type: ADME, organism-based, Canis lupus familiaris; parameters: dose 10 mg/kg, route oral; conditions: in vivo
[39] = Apparent oral clearance in Beagle dog at 10 mg/kg, po; assay type: ADME, organism-based, Canis lupus familiaris; parameters: dose 10 mg/kg, route oral; conditions: in vivo
[40] = AUC (0 to infinity) in Beagle dog at 10 mg/kg, po; assay type: ADME, organism-based, Canis lupus familiaris; parameters: time infinity, dose 10 mg/kg, route oral; conditions: plasma
[41] = system: HCT-116; test: Antitumor activity against human HCT116 cells xenografted in nude BALB/c mouse assessed as tumor growth inhibition at 100 mg/kg, po qd for 21 days; assay type: functional; conditions: HCT-116, 504 h, read-out: TGI
[42] = system: MV4-11; test: Antiproliferative activity against human MV4-11 cells; assay type: functional, cell-based
[43] = system: PC-3; test: Antiproliferative activity against human PC3 cells; assay type: functional, cell-based
[44] = system: Mus musculus; test: Toxicity in nude BALB/c mouse xenografted with human A2780 cells assessed as mortality at 50 mg/kg, po QD for 21 days measured on day 9; assay type: organism-based; parameters: dose 50 mg/kg, route oral; conditions: in vivo, 504 h
[45] = system: Ramos; test: Antitumor activity against human Ramos cells xenografted in nude BALB/c mouse assessed as tumor growth inhibition at 50 mg/kg, po qd for 21 days measured on day 15; assay type: functional; conditions: read-out: TGI
[46] = system: Mus musculus; test: Toxicity in nude BALB/c mouse xenografted with human Ramos cells assessed as maximum body weight loss at 50 mg/kg, po QD for 21 days measured on day 12; assay type: organism-based; parameters: dose 50 mg/kg, route oral; conditions: in vivo, 504 h
[47] = system: Mus musculus; test: Toxicity in nude BALB/c mouse xenografted with human Ramos cells assessed as mortality at 50 mg/kg, po QD for 21 days measured on day 15; assay type: organism-based; parameters: dose 50 mg/kg, route oral; conditions: in vivo, 504 h
[48] = system: Mus musculus; test: Toxicity in nude BALB/c mouse xenografted with human MV4-11 cells assessed as maximum body weight loss at 50 mg/kg, po QD for 21 days measured on day 19; assay type: organism-based; parameters: dose 50 mg/kg, route oral; conditions: in vivo, 504 h
[49] = system: Mus musculus; test: Toxicity in nude BALB/c mouse xenografted with human MV4-11 cells assessed as maximum body weight loss at 25 mg/kg, po QD for 21 days measured on day 10; assay type: organism-based; parameters: dose 25 mg/kg, route oral; conditions: in vivo, 504 h
[50] = system: Mus musculus; test: Toxicity in nude BALB/c mouse xenografted with human MV4-11 cells assessed as maximum body weight loss at 25 mg/kg, po QD for 21 days measured on day 12; assay type: organism-based; parameters: dose 25 mg/kg, route oral; conditions: in vivo, 504 h
[51] = system: Mus musculus; test: Toxicity in po dosed athymic nu/nu Harlan mouse with xenografted human HCT116 cells assessed as treatment-related mortality at 200 mg/kg,; assay type: organism-based, HCT-116; parameters: dose 200 mg/kg, route oral; conditions: in vivo

SMILES: CCCCc1nc2cc(/C=C/C(=O)NO)ccc2n1CCN(CC)CC.Cl.Cl
- inhibition in vivo at 100 mg/kg [1]: 98%
- Time [2]: 10 h
- Time [3]: 16 h
- Time [4]: 5.1 h
- Time [5]: 7.1 h
- fraction unbound at 1000 ng/mL [6]: 0.082
- fraction unbound at 1000 ng/mL [7]: 0.165
- fraction unbound at 1000 ng/mL [8]: 0.07
- fraction unbound at 1000 ng/mL [9]: 0.061
- inhibition [10]: inactive
- inhibition in vivo at 100 mg/kg [11]: 97%
- solubility [12]: > 100 mg/mL
- solubility [13]: > 50 mg/mL
- solubility [14]: > 25 mg/mL
- half-life [15]: 7.8 min
- half-life [16]: > 60 min
- solubility kinetic [17]: > 200 µM
- logD [18]: 2.07
- half-life [19]: 136 min
- CL/F [20]: 153 mL/min/kg
- Vd [21]: 3.46 L/kg
- Tmax [22]: 10.2 min
- half-life [23]: 146 min
- AUC(0-inf) [24]: 4.27 µM·h
- half-life [25]: 53.4 min
- CL/F [26]: 74.2 mL/min/kg
- Cmax [27]: 139 nM
- Tmax [28]: 14.4 min
- half-life [29]: 121 min
- CL/F [30]: 2550 mL/min/kg
- Activity [31]: 6.4%
- Activity [32]: 25.5%
- Activity [33]: Non-toxic
- Activity [34]: Non-toxic
- half-life [35]: 234 min
- AUC(0-inf) [36]: 3.22 µM·h
- Cmax [37]: 3560 nM
- Tmax [38]: 45 min
- CL/F [39]: 38.2 mL/min/kg
- AUC(0-inf) [40]: 10.5 µM·h
- inhibition in vivo at 100 mg/kg [41]: 90%
- IC50 [42]: 100 nM
- IC50 [43]: 340 nM
- Activity [44]: Non-toxic
- inhibition in vivo at 50 mg/kg [45]: 75%
- Activity [46]: 3.7%
- Activity [47]: Non-toxic
- Activity [48]: 7.1%
- Activity [49]: 10%
- Activity [50]: 12%

SMILES: CCCCCCc1nc2cc(/C=C/C(=O)NO)ccc2n1CCN(C)C
- Activity [51]: Toxic
